Data set [1] has as its system HUVEC. Briefly: ROS generation assay (DCFH-DA flow cytometry). Type of data set: cell-based, human. Particulars: 3.75-15 µM. Here is the method: Flow cytometry was performed to measure intracellular reactive oxygen species (ROS) levels using DCFH-DA (2’,7’-Dichlorodihydrofluorescein diacetate). Cells were collected and stained with DCFH-DA, followed by incubation at 37℃ for 30 min in the dark. Subsequently, the cell populations were analyzed by flow cytometry.
For orientation: In flow cytometry, cells or beads pass a laser one at a time.

The subject of a further data set is zebrafish embryos. Nature of the data set: Zebrafish embryo toxicity. The format is in vivo, zebrafish (Danio rerio). Particulars: embryos exposed 12 to 48 hpf, survival. Here is the method:
(§1) Transgenic zebrafish Tg(flk: EGFP) were obtained from the China Zebrafish Resource Center and maintained at 28 ± 1 °C under a 14-hour light/10-hour dark cycle. […] Survival rates were recorded to calculate the median lethal concentration (LC₅₀). For the retinal angiogenesis assay, embryos at 1 day post fertilization (dpf) were transferred to E3 medium containing 5 mM CoCl₂·6 H₂O and 2.5 µg/mL GS4012 to induce hypoxia and abnormal vessel formation. At 3 dpf, test compounds were added and incubation continued until 5 dpf. Blank, model, and vehicle (≤ 0.1% DMSO) controls were included, with at least three replicates per group (n = 10–15 embryos). At 5 dpf, retinal vasculature was imaged using fluorescence microscopy and analyzed for branching number, vessel length, and density using ImageJ. Data are presented as mean ± standard deviation (SD) and analyzed using one-way ANOVA followed by Tukey’s post hoc test, with p < 0.05 considered statistically significant.
The zebrafish (Danio rerio) model was employed due to its distinct advantages, the optical transparency, which enable in vivo vascular visualization. […] Firstly, the 8 candidate compounds underwent preliminary toxicity evaluation in zebrafish embryos. […] At 48 hpf, the number of surviving embryos was quantified, and the lethal dose 50 (LD50) for each compound was determined based on the survival data. […]

Data set [2] deals with zebrafish retinal vasculature. Briefly: Zebrafish hypoxia-induced retinal vascular abnormality model. The format is in vivo, zebrafish (Danio rerio). Particulars: CoCl2 5 mM + GS401 2.5 ug/ml; compounds at concentrations < LD50 (A-2 1 µM); imaged at 5 dpf. Here is the method:
as §1
Furthermore, we established a hypoxia-induced vascular dysregulation model with CoCl2 (5mM) and a VEGF inductive agent GS401 (2.5 ug/ml) in zebrafish embryos to assess the capacity of candidate compounds to regulate vascular normalization. Following Zebrafish toxicity profiling, 8 candidate compounds were administered at optimized concentrations (< LD50) to treat the zebrafish vascular abnormality model separately. […]

The subject of data set [3] is HUVEC. Nature of the data set: Wound healing and Transwell assays. Type of data set: cell-based, human. Particulars: candesartan 15, 7.5, 3.75 µM; sunitinib 2 µM; 48 h. The protocol: HUVEC cells were digested and inoculated into 6-well plates, with 1 × 10^5 cells added to each hole. On the second day, the gun head was drawn vertically along the edge of the upper lid of the hole plate. The cells were washed twice with PBS, the scratched cells were removed, and the serum free medium containing drugs was added. The photos were taken and recorded under the microscope for 0 h and cultured in a 5% CO2 incubator at 37℃. After 48 h, the sample was taken and photographed for recording. The cell scratch area was calculated with Image J software.
Migration assays were performed using the Transwell cell culture insert. HUVEC (3 × 10^4 cells) were suspended with 100µL serum-free medium containing different concentrations of compounds and placed in the upper layer of the Transwell cell culture insert, and 300µL medium containing 10% FBS was placed below the cell-permeable membrane. Following an incubation (48 h), the cells that had migrated through the membrane were stained with 0.2% crystal violet for 30 min and count.

For data set [4], the system named is HUVEC. Briefly: DNA damage: γ-H2AX western blot and alkaline comet assay. The format is cell-based, human. Here is the method:
Total protein was extracted using RIPA lysis buffer (Solarbio, China) supplemented with phenylmethylsulfonyl fluoride (PMSF; Thermo Fisher Scientific, USA), protease inhibitor cocktail (Roche, Switzerland), and phosphatase inhibitor cocktail (Roche, Switzerland). Protein concentration was determined using a BCA protein assay kit (Thermo Fisher Scientific, USA). Equal amounts of protein were separated by 10% SDS-polyacrylamide gel electrophoresis (SDS-PAGE) and transferred onto nitrocellulose (NC) membranes. […] All primary antibodies were purchased from Cell Signaling Technology (CST, USA), except for GAPDH, which was obtained from Proteintech (Wuhan, China). After washing, the membranes were incubated with HRP-conjugated goat anti-rabbit or anti-mouse IgG secondary antibodies (Biosharp, China) for 1 h at room temperature. Protein bands were visualized using an enhanced chemiluminescence (ECL) detection system and scanned using a chemiluminescence imaging system.

The target in the next data set is T1, APLNR (Homo sapiens, UniProt P35414).
T1 sequence (P35414 1-380): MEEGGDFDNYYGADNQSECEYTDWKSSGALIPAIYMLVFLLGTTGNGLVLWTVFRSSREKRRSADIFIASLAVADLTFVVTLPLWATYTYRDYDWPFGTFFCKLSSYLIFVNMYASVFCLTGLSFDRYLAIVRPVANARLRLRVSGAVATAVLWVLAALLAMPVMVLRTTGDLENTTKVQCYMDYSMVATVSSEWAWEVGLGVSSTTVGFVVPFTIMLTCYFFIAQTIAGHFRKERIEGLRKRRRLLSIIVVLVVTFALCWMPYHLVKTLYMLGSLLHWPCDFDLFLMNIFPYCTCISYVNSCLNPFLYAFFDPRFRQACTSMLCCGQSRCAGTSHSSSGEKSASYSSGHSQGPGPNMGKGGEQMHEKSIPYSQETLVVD
Nature of the data set: cAMP assay in APLNR-HEK293T cells. Type of data set: cell-based. Further details: expressed in transfected cells; host or cells: HEK293. Particulars: forskolin 20 µM, Apelin-13 0.1 µM, compound 10^-4-100 µM. The protocol: A suspension of APLNR-HEK293T cells was prepared and seeded into a 384-well OptiPlate™ 384 at a density of 1 × 10⁴ cells per well. The cells were cultured at 37℃ for 24 h. The culture medium was then removed, and 7.5 µL of serum-free medium containing 500 µM IBMX and the test compound was added to each well. The plate was incubated at 37℃ with 5% CO2 for 30 min. The concentration of cAMP was subsequently measured using the cAMP-Glo™ Assay Kit (Promega).
To characterize the molecular interactions between candesartan and APLNR, we performed molecular docking simulations using the APLNR crystal structure (PDB: 7SUS) as a template. […] In addition, previous studies have established that APLNR activation by its endogenous agonist Apelin-13 […] Gi protein signaling, thereby attenuating forskolin-induced cAMP accumulation. Then, using APLNR overexpression cell line (HEK293T-APLNR) and cAMP quantification assays to investigate the inhibitory activity of candesartan on APLNR.
A general note: cAMP levels reflect the balance of adenylyl cyclase and phosphodiesterase activity.

For the molecule `CCOc1nc2cccc(C(=O)O)c2n1Cc1ccc(-c2ccccc2-c2nnn[nH]2)cc1` [Compound A-2, Candesartan], the ROS levels entry with HUVEC [1] was “gradually increased with increasing drug concentration”. Besides, the “LD50(µM,48 h)” value in the data set with zebrafish embryos is 1.10 ± 0.12 µM. For the same molecule, the “Effect on hypoxia-induced retinal vascular pathology (ectopic branching, vascular architecture)” value in data set [2] is “markedly attenuated these pathological features”. Besides, in the data set on HUVEC [3], the “Migratory and invasive capacities of HUVECs” value was “significantly reduced the migratory and invasive capacities of HUVECs”. Moreover, the “DNA fragmentation (comet assay)” value in the data set with HUVEC [4] is “increased DNA fragmentation”. In addition, the γ-H2AX expression entry in the data set with HUVEC [4] (western blot, 48 h) was “dose-dependent increase”. Besides, the “cAMP accumulation (reversal of Apelin-13 effect)” value on APLNR is reported as “dose-dependently restored cAMP accumulation”.

(Values after publication PMC12763877 (Journal of Experimental & Clinical Cancer Research : CR, 2025).)
